SMILES strings stand for the structures.

The source of these data is patent publication US5098900A, “3(2H)pyridazinone, process for its preparation and anti-allergic agent containing it” (Nissan Chemical Industries Ltd., priority 1984, dated 1992).

This experiment has as its system LTD4. In words: LTD4 antagonism in isolated guinea-pig trachea (LTD4-induced contraction). The experiment is classed as cell-based. As to conditions: 5 min, test compound 10^-5 g/ml, LTD4 2×10^-8 g/ml; for inhibition at 10 µg/mL: Cavia porcellus. The procedure: (ii) LTC4 and LTD4 antagonisms in guinea-pig trachea
Antagonism for LTC4 and LTD4 were determined in isolated guinea-pig trachea prepared as spiral strip. 10 Tracheal preparations were suspended under 1 g tension in […] and they were incubated for 1 hr prior to use. Contractile responses to LTC4 (2×10^-8 g/ml) and LTD4 (2×10^-8 g/ml) were obtained after the maximal response to histamine (10^-4 M). Test compounds dissolved in 100% dimethyl sulfoxide were added to the organ baths (final concentration of 10^-5 g/ml) 5 min prior to LTC4 and LTD4 addition, and then contractile responses to LTC4 and LTD4 were compared with those of control which was obtained from a paired trachea in the absence of test compounds. LTC4 - and LTD4 -induced contractions were expressed as a percentage of the maximal response to histamine. The antagonism was determined as follows: Antagonism (%)=(1.0-% contraction in test/% contraction in control)×100

What is called inhibition is the relative decrease from the control value, in per cent. High values mean a strong effect, low ones a weak effect. On to `COc1cccc(CNc2cnn(C(C)C)c(=O)c2Cl)c1` [Compound No. 7], for which the inhibition at 10 µg/mL is 92%. For the molecule `COc1cccc(CNc2cnn(C(C)(C)C)c(=O)c2Cl)c1` [Compound No. 8], the inhibition at 10 µg/mL worked out at 53%. Still for that read-out and setting: in the case of `CCc1c(NCc2ccc(C)cc2)cnn(C(C)(C)C)c1=O` [Compound No. 36, 4-Ethyl-5-(4-methylbenzylamino)-2-t-butyl-3(2H)pyridazinone] it was 19%; in that of `C=CCNC(=O)c1ccc(CNc2cnn(C(C)(C)C)c(=O)c2Cl)cc1` [Compound No. 54, 4-Chloro-5-(4-allylaminocarbonylbenzylamino)-2-t-butyl-3(2H)pyridazinone], 10%; in that of `CCOC(=O)CCNC(=O)/C=C/c1ccc(CNc2cnn(C(C)(C)C)c(=O)c2Cl)cc1` [Compound No. 60], 15%. Same read-out and setting: in the case of `CC(C)(C)n1ncc(NCc2ccc(/C=C/C(=O)NCCC(=O)O)cc2)c(Cl)c1=O` [Compound No. 61, 4-Chloro-5-[4-(β-carboxyethylaminocarbonyl-2-transethenyl)benzylamino]-2-t-butyl-3(2H)pyridazinone] it was 21%; in that of `CC(C)n1ncc(NCc2cccc(OCc3ccccc3)c2)c(Cl)c1=O` [Compound No. 95, 4-Chloro-5-(3-benzyloxybenzylamino)-2-i-propyl-3-(2H)pyridazinone], 62%; in that of `COc1ccc(CNc2cnn(C(C)C)c(=O)c2)c(OC)c1` [Compound No. 100, 5-(2,4-dimethoxybenzylamino)-2-i-propyl-3(2H)pyridazinone], 21%. On the same count and under the same terms, in the case of `CCCN(CCC)C(=O)c1ccc(CNc2cnn(C(C)C)c(=O)c2Cl)cc1` [Compound No. 125, 4-Chloro-5-(4-di-n-propylaminocarbonylbenzylamino)-2-i-propyl-3(2H)pyridazinone] it was 53%; in that of `CC(C)n1ncc(NCc2cccc(O)c2)c(Cl)c1=O` [Compound No. 137, 4-Chloro-5-(3-hydroxybenzylamino)-2-i-propyl-3-(2H)pyridazinone], 96%. Turning to `CC(C)n1ncc(NCc2cccc(OCCCCC(=O)OC(C)(C)C)c2)c(Cl)c1=O` [Compound No. 139, 4-Chloro-5-[3-(4-t-butoxycarbonyl)butoxybenzylamino]-2-i-propyl-3(2H)pyridazinone], testing at 10 µg/mL gave an inhibition of 57%.

Take `CC(C)n1ncc(NCc2ccc(C=O)cc2)c(Cl)c1=O` [Compound No. 140, 4-Chloro-5-(4-formylbenzylamino)-2-i-proyl-3(2H)pyridazinone]: the inhibition at 10 µg/mL was found to be 77%.

As to `CC(C)n1ncc(NCc2cccc(OCCCCC(=O)O)c2)c(Cl)c1=O` [Compound No. 142, 4-Chloro-5-[3-(4-carboxy)butoxybenzylamino]-2-i-propyl-3(2H)pyridazinone], the inhibition at 10 µg/mL came out at 41%.

`COC(=O)CCCCOc1cccc(CNc2cnn(C(C)C)c(=O)c2Cl)c1` [Compound No. 144]: the inhibition at 10 µg/mL came out at 44%. The same measure, in the same setting: as for `CNC(=O)CCCCOc1cccc(CNc2cnn(C(C)C)c(=O)c2Cl)c1` [Compound No. 146, 4-Chloro-5-[3-(4-N-methylaminocarbonyl)butoxybenzylamino]-2-i-propyl-3(2H)pyridazinone], the figure is 32%.

Molecule `CC(C)n1ncc(NCc2cccc(OCCCCCO)c2)c(Cl)c1=O` [Compound No. 147, 4-Chloro-5-[3-(5-hydroxy)pentoxybenzylamino]-2-i-propyl-3(2H)pyridazinone] yielded an inhibition at 10 µg/mL of 73%.

As for `COCCCCCOc1cccc(CN(C)c2cnn(C(C)C)c(=O)c2Cl)c1` [Compound No. 149, 4-Chloro-5-[3-(5-methoxy)pentoxy-N-methylbenzylamino]-2-i-propyl-3(2H)pyridazinone], at 10 µg/mL the inhibition was 68%. Same read-out and setting: in the case of `CC(C)n1ncc(N(C)Cc2cccc(OCCCCCO)c2)c(Cl)c1=O` [Compound No. 150, 4-Chloro-5-[3-(5-hydroxy)pentoxy-N-methyl-benzylamino]-2-i-propyl-3(2H)pyridazinone] it was 57%; in that of `COc1ccc(CNc2cnn(C(C)C)c(=O)c2C)cc1` [Compound No. 151, 4-Methyl-5-(4-methoxybenzylamino)-2-i-propyl-3(2H)-pyridazinone], 78%. In the case of `CCOc1ccc(CNc2cnn(C(C)C)c(=O)c2Br)cc1` [Compound No. 164, 4-Bromo-5-(4-ethoxybenzylamino)-2-i-propyl-3(2H)pyridazinone], the inhibition at 10 µg/mL turned out to be 82%. The same measure, in the same setting: as for `COc1ccc(CNc2cnn(C(C)(C)C)c(=O)c2Br)cc1OC` [compound 17], the figure is 80%; as for `CCCCCOc1cc(CNc2cnn(CC)c(=O)c2Cl)ccc1OC` [compound 19], 66%. Same read-out and setting: as for `CCCCCOc1cc(CNc2cnn(C(C)(C)C)c(=O)c2Cl)ccc1OC` [compound 20], the figure is 17%. With `CC(C)n1ncc(NCc2ccc(N(C)C)cc2)c(Cl)c1=O` [compound 26], the LTD4 antagonism is 38%. Regarding `CN(C)c1ccc(CNc2cnn(C(C)(C)C)c(=O)c2Br)cc1` [compound 28], the inhibition at 10 µg/mL is 52%. Same read-out and setting: as for `CCCN(CCC)C(=O)c1ccc(CNc2cnn(C(C)(C)C)c(=O)c2Cl)cc1` [compound 39], the figure is 67%.

Consider `CC(C)n1ncc(NCc2ccc(N(C)C)cc2)c(Cl)c1=O` [compound 45], for which the LTD4 antagonism is listed as 14%. `CCn1ncc(NCc2ccc(N(C)C)cc2)c(Cl)c1=O` [compound 46] showed an inhibition at 10 µg/mL of 49%. As to `CN(C)c1ccc(CNc2cnn(C(C)(C)C)c(=O)c2Br)cc1` [compound 47], the LTD4 antagonism was 65%. Same read-out and setting: as for `CN(C)CCNC(=O)c1ccc(CNc2cnn(C(C)(C)C)c(=O)c2Cl)cc1` [compound 50], the figure is 12%. `CCOCCNC(=O)c1ccc(CNc2cnn(C(C)(C)C)c(=O)c2Cl)cc1` [compound 56] displayed an inhibition at 10 µg/mL of 19%. Still for that read-out and setting: in the case of `CCOCCCNC(=O)c1ccc(CNc2cnn(C(C)(C)C)c(=O)c2Cl)cc1` [compound 57] it was 27%; in that of `CN(C)CCNC(=O)c1ccc(CNc2cnn(C(C)(C)C)c(=O)c2Cl)cc1` [compound 58], 23%. The same measure, in the same setting: in the case of `CCc1ccc(CNc2cnn(CC)c(=O)c2Cl)cc1` [compound 81] it was 68%. The same measure, in the same setting: in the case of `CCc1cc(CNc2cnn(C(C)C)c(=O)c2Cl)ccc1OCc1ccccc1` [compound 82] it was 46%; in that of `CCc1cc(CNc2cnn(CC)c(=O)c2Cl)ccc1OCc1ccccc1` [compound 83], 74%; in that of `CCc1cc(CNc2cnn(C(C)C)c(=O)c2Cl)ccc1OC` [compound 84], 96%. As for `CCc1cc(CNc2cnn(CC)c(=O)c2Cl)ccc1OC` [compound 85], 10 µg/mL produced 91% inhibition.

Molecule `CCOc1ccccc1CNc1cnn(C(C)C)c(=O)c1Cl` [compound 92] showed an inhibition at 10 µg/mL of 92%. Still for that read-out and setting: as for `CC(C)n1ncc(NCc2ccc(OCc3ccccc3)cc2)c(Cl)c1=O` [compound 96], the figure is 59%; as for `COc1cc(CNc2cnn(C(C)C)c(=O)c2Cl)cc(OC)c1` [compound 98], 55%; as for `COc1ccc(OC)c(CNc2cnn(C(C)C)c(=O)c2Cl)c1` [compound 104], 68%. `CCOc1ccc(CNc2cnn(C(C)C)c(=O)c2Cl)cc1OC` [compound 107]: the inhibition at 10 µg/mL was 65%.

The molecule `CCCOc1ccc(CNc2cnn(CC)c(=O)c2Cl)cc1OC` [compound 108] showed an inhibition at 10 µg/mL of 53%. Same read-out and setting: in the case of `CCOc1cccc(CNc2cnn(CC)c(=O)c2Cl)c1OC` [compound 110] it was 69%; in that of `CCOc1cccc(CNc2cnn(C(C)C)c(=O)c2Cl)c1OC` [compound 111], 72%; in that of `CCOc1cc(CNc2cnn(C(C)C)c(=O)c2Cl)ccc1OCc1ccccc1` [compound 113], 40%.

As for `CCOc1cccc(CNc2cnn(C(C)C)c(=O)c2Cl)c1OCc1ccccc1` [compound 114], 10 µg/mL produced 77% inhibition. On the same count and under the same terms, in the case of `CCOc1cc(CNc2cnn(CC)c(=O)c2Cl)ccc1OCc1ccccc1` [compound 115] it was 73%; in that of `CCOc1cccc(CNc2cnn(CC)c(=O)c2Cl)c1OCc1ccccc1` [compound 116], 89%; in that of `CCCOc1cc(CNc2cnn(C(C)C)c(=O)c2Cl)ccc1OCc1ccccc1` [compound 117], 25%.

`CCCOc1cc(CNc2cnn(CC)c(=O)c2Cl)ccc1OCc1ccccc1` [compound 118] had an inhibition at 10 µg/mL of 61%. Same read-out and setting: in the case of `COc1cc(CNc2cnn(C(C)(C)C)c(=O)c2Cl)cc(OC)c1OC` [compound 120] it was 26%; in that of `CCn1ncc(NCc2cc(OC)c(OC)c(OC)c2)c(Cl)c1=O` [compound 121], 31%; in that of `COc1cc(CNc2cnn(C(C)C)c(=O)c2Cl)cc(OC)c1OC` [compound 122], 23%. On the same count and under the same terms, as for `CC(C)n1ncc(NCc2ccc(Cl)cc2)c(Cl)c1=O` [compound 123], the figure is 88%. Still for that read-out and setting: as for `CCn1ncc(NCc2ccc(SC)cc2)c(Cl)c1=O` [compound 124], the figure is 71%; as for `CCCn1ncc(NCc2ccc(N(C)C)cc2)c(Cl)c1=O` [compound 126], 63%. Consider `CCOc1cccc(CNc2cnn(C(C)C)c(=O)c2Cl)c1O` [compound 127], for which testing at 10 µg/mL gave an inhibition of 76%.
